What all share (format): cell-based
Assay [1] has as its system SW480 (colon cancer). As to the kind of experiment: Antiproliferative activity (CCK-8 cell viability), SW480. To be noted: Homo sapiens, 72 h; for inhibition at 3.3 µM: Compound concentration: 3.3 μM; for inhibition at 10 µM: Compound concentration: 10 μM; for inhibition at 30 µM: Compound concentration: 30 μM. The method, boiled down: (§1)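 Cells were seeded at 2,000-5,000/well (HeLa in MEM, HepG2 and SW480 in DMEM, A549 in F-12K, all with 10% FBS) and treated with compound at 3.3, 10 or 30 μM for 72 h at 37° C. CCK-8 was added for 4 h, absorbance was read at 450 nm, and viability was expressed relative to DMSO-treated wells.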

Assay [2] concerns alpha-smooth muscle actin (α-SMA). The assay is described as follows: Inhibition of TGF-β induced expression of alpha-smooth muscle actin (α-SMA) in CFSC cells (western blot). To be noted: compound at 10 μM, TGF-β (10 ng/mL), 24 hours, band intensity vs TGF-β only. The method, boiled down: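 Values are percent reduction of α-SMA band intensity relative to cells given TGF-β alone, quantified by Western blot densitometry with β-actin probed. Compound was applied at 10 μM alongside 10 ng/mL TGF-β to serum-free CFSC cultures for 24 h at 37 °C.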
On the technique in general: Immunoblotting shows a protein as a band on a membrane.

Assay [3] has as its system HepG2 (liver cancer). The assay is described as follows: Antiproliferative activity (CCK-8 cell viability), HepG2. To be noted: Homo sapiens, 72 h; for inhibition at 3.3 µM: Compound concentration: 3.3 μM; for inhibition at 10 µM: Compound concentration: 10 μM; for inhibition at 30 µM: Compound concentration: 30 μM. The method, boiled down:
as §1

In assay [4] the test system is B16F10 (malignant melanoma). The assay is described as follows: Antiproliferative activity (CCK-8 cell viability), B16F10. The following applies: Mus musculus, 72 h; for inhibition at 3.3 µM: B16-F10, Compound concentration: 3.3 μM; for inhibition at 10 µM: B16-F10, Compound concentration: 10 μM; for inhibition at 30 µM: B16-F10, Compound concentration: 30 μM. In a few lines: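 Attached B16F10 cells in 96-well plates were incubated with compound at 37° C for 72 h, followed by 10 μL CCK-8 reagent per well and a further 4 h incubation. A multi-well plate reader measured absorbance at 450 nm. Percent viability across replicates was calculated against DMSO vehicle-treated cells.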

For assay [5], the system named is A549 (lung adenocarcinoma). The assay is described as follows: Antiproliferative activity (CCK-8 cell viability), A549. The following applies: Homo sapiens, 72 h; for inhibition at 3.3 µM: Compound concentration: 3.3 μM; for inhibition at 10 µM: Compound concentration: 10 μM; for inhibition at 30 µM: Compound concentration: 30 μM. The method, boiled down: as §1
For assay [6], the system named is A431 (epidermoid carcinoma). As to the kind of experiment: Antiproliferative activity (CCK-8 cell viability), A431. To be noted: Homo sapiens, 72 h; for inhibition at 3.3 µM: A-431, Compound concentration: 3.3 μM; for inhibition at 10 µM: A-431, Compound concentration: 10 μM; for inhibition at 30 µM: A-431, Compound concentration: 30 μM. The method, boiled down: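 Cell viability of compound-treated A431 cells was measured with a Cell Counting Kit-8. Each well received 10 μL of CCK-8 after 72 h of compound exposure, followed by 4 h incubation at 37° C. and a 450 nm plate-reader measurement. Percent viability was calculated relative to DMSO controls across replicates.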

Assay [7] concerns HeLa (cervical cancer). As to the kind of experiment: Antiproliferative activity (CCK-8 cell viability), HeLa. To be noted: Homo sapiens, 72 h; for inhibition at 3.3 µM: Compound concentration: 3.3 μM; for inhibition at 10 µM: Compound concentration: 10 μM; for inhibition at 30 µM: Compound concentration: 30 μM. The method, boiled down:
as §1

Assay [8] concerns MDA-MB-231 (breast cancer). The assay is described as follows: Antiproliferative activity (CCK-8 cell viability), MDA-MB-231. To be noted: Homo sapiens, 72 h, read-out: Antiproliferative activity in cancerous cells, MDA-MB-231 (inhibition of cell growth); for inhibition at 3.3 µM: Compound concentration: 3.3 μM; for inhibition at 10 µM: Compound concentration: 10 μM. In a few lines:
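In this CCK-8 viability assay, MDA-MB-231 cells maintained in Dulbecco's modified Eagle's medium containing 10% fetal bovine serum were placed in 96-well plates (2,000-5,000 cells/well) and treated with compound for 72 h at 37° C. A 4 h incubation with 10 μL CCK-8 followed, plates were read at 450 nm, and viability was expressed against DMSO vehicle wells across replicates.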

The mark [9] stands for this setting: read-out: Antiproliferative activity in cancerous cells, SW480 (inhibition of cell growth).
Setting [10] is: read-out: Antiproliferative activity in cancerous cells, HepG2 (inhibition of cell growth).
Where [11] appears, read: read-out: Antiproliferative activity in cancerous cells, B16F10 (inhibition of cell growth).
Setting [12] is: read-out: Antiproliferative activity in cancerous cells, A549 (inhibition of cell growth).
Where [13] appears, read: read-out: Antiproliferative activity in cancerous cells, A431 (inhibition of cell growth).
[14] abbreviates: read-out: Antiproliferative activity in cancerous cells, HELA (inhibition of cell growth).
The mark [15] stands for this setting: read-out: Antiproliferative activity in cancerous cells, HepG2.
The mark [16] stands for this setting: read-out: Antiproliferative activity in cancerous cells, A549.

SMILES strings stand for the structures. Like-named read-outs stand apart in the source and are kept apart here.

Take `CC1=C(CC(=O)O)c2ccc(F)c(F)c2/C1=C/c1cccc(Oc2ccccc2)c1` [E4, (E)-2-(6,7-Difluoro-2-methyl-1-(3-phenoxybenzylidene)-1H-inden-3-yl)acetic acid]: the inhibition at 3.3 µM in assay [1] (setting [9]) is < 30%; in assay [3] (setting [10]), < 30%; in assay [4] (setting [11]) it was < 30%; in assay [5] (setting [12]), < 30%; in assay [6] (setting [13]), < 30%; in assay [7] (setting [14]), 30 to 50%. In addition, the inhibition at 3.3 µM in assay [8] is < 30%. The inhibition at 10 µM in assay [1] (setting [9]) is < 30%; in assay [2] it was > 80%; in assay [3] (setting [10]), 30 to 50%; in assay [4] (setting [11]) it was ≥ 50%; in assay [5] (setting [12]) it was ≥ 50%; in assay [6] (setting [13]), < 30%. Moreover, the inhibition at 10 µM in assay [7] (setting [14]) was ≥ 50%; in assay [8], 30 to 50%. Also, the inhibition at 30 µM in assay [1] (setting [9]), in assay [3] (setting [10]), in assay [4] (setting [11]), in assay [5] (setting [12]), in assay [6] (setting [13]) and in assay [7] (setting [14]) was ≥ 50% throughout. Also, the inhibition at 30 µM in assay [8] (Compound concentration: 30 μM) was ≥ 50%.
On to `COc1ccc2c(c1)/C(=C\c1ccc(Oc3ccc(F)cc3)cc1)C(C)=C2CC(=O)O` [C1, (Z)-2-(1-(4-(4-Fluorophenoxy)benzylidene)-6-methoxy-2-methyl-1H-inden-3-yl)-acetic acid], for which the inhibition at 3.3 µM in assay [1] (setting [9]) was ≥ 50%; in assay [3] (setting [10]), < 30%; in assay [4] (setting [11]) it was 30 to 50%; in assay [5] (setting [12]) it was < 30%; in assay [6] (setting [13]) it was 30 to 50%; in assay [7] (setting [14]), ≥ 50%. Moreover, in assay [8], the inhibition at 3.3 µM was ≥ 50%. Also, the inhibition at 10 µM is ≥ 50% in assay [1] (setting [9]); > 80% in assay [2]; < 30% in assay [3] (setting [10]); ≥ 50% in assay [4] (setting [11]); < 30% in assay [5] (setting [12]); ≥ 50% in assay [6] (setting [13]). Further, the inhibition at 10 µM in assay [7] (setting [14]) and in assay [8] was ≥ 50% each time.
As for `CCC1=C(CC(=O)O)c2cc(F)ccc2/C1=C\c1cccc(COc2ccccc2)c1` [A5, (Z)-2-(2-Ethyl-5-fluoro-1-(3-(phenoxymethyl)benzylidene)-1H-inden-3-yl)acetic acid], the inhibition at 3.3 µM in assay [1] (setting [9]) was < 30%; in assay [3] (setting [10]), 30 to 50%; in assay [4] (setting [11]), 30 to 50%; in assay [5] (setting [12]), 30 to 50%; in assay [6] (setting [13]) it was < 30%; in assay [7] (setting [14]) it was 30 to 50%. Besides, the inhibition at 3.3 µM in assay [8] is ≥ 50%. The inhibition at 10 µM is ≥ 50% in assay [1] (setting [9]); > 80% in assay [2]; ≥ 50% in assay [3] (setting [10]); ≥ 50% in assay [4] (setting [11]); ≥ 50% in assay [5] (setting [12]); ≥ 50% in assay [6] (setting [13]). Also, the inhibition at 10 µM in assay [7] (setting [14]) and in assay [8] was ≥ 50% in each case.
As for `CC1=C(CC(=O)O)c2cc(F)ccc2/C1=C\c1ccc(Sc2nc3ccccc3[nH]2)cc1` [C36, (Z)-2-(1-(4-((1H-Benzo[d]imidazol-2-yl)thio)benzylidene)-5-fluoro-2-methyl-1H-inden-3-yl)acetic acid], the inhibition at 3.3 µM in assay [1] (setting [9]), in assay [3] (setting [10]), in assay [4] (setting [11]), in assay [5] (setting [12]), in assay [6] (setting [13]) and in assay [7] (setting [14]) was < 30% each time. Also, the inhibition at 3.3 µM in assay [8] is < 30%. Besides, the inhibition at 10 µM in assay [1] (setting [9]) was 30 to 50%; in assay [2], < 30%; in assay [3] (setting [10]) it was < 30%; in assay [4] (setting [11]), < 30%; in assay [5] (setting [12]) it was < 30%; in assay [6] (setting [13]), < 30%. Besides, the inhibition at 10 µM in assay [7] (setting [14]) and in assay [8] was 30 to 50% each time. In addition, the inhibition at 30 µM in assay [1] (read-out: Antiproliferative activity in cancerous cells, SW480) was 30 to 50%; in assay [3] (setting [15]), < 30%; in assay [4] (read-out: Antiproliferative activity in cancerous cells, B16F10), 30 to 50%; in assay [5] (setting [16]), 30 to 50%; in assay [6] (read-out: Antiproliferative activity in cancerous cells, A431), < 30%.
For the compound `O=C(O)CC1=C/C(=C/c2ccc(COc3ccccc3)cc2)c2ccc(F)cc21` [B3, (Z)-2-(5-Fluoro-1-(4-(phenoxymethyl)benzylidene)-1H-inden-3-yl)acetic acid], the inhibition at 3.3 µM in assay [1] (setting [9]) is < 30%; in assay [3] (setting [10]), 30 to 50%; in assay [4] (setting [11]), ≥ 50%; in assay [5] (setting [12]) it was 30 to 50%; in assay [6] (setting [13]) it was < 30%; in assay [7] (setting [14]), < 30%. For the same compound, the inhibition at 3.3 µM in assay [8] is ≥ 50%. Further, the inhibition at 10 µM is 30 to 50% in assay [1] (setting [9]); > 80% in assay [2]; 30 to 50% in assay [3] (setting [10]); ≥ 50% in assay [4] (setting [11]); ≥ 50% in assay [5] (setting [12]); 30 to 50% in assay [6] (setting [13]). Besides, the inhibition at 10 µM was < 30% in assay [7] (setting [14]) and ≥ 50% in assay [8]. For the same compound, the inhibition at 30 µM in assay [3] (setting [15]) is < 30%; in assay [5] (setting [16]) it was 30 to 50%; in assay [7] (read-out: Antiproliferative activity in cancerous cells, HELA) it was < 30%.

The values above are taken from US20260184663A1, “INDENE COMPOUNDS, PHARMACEUTICAL COMPOSITIONS THEREOF, AND THEIR THERAPEUTIC APPLICATIONS” (NucMito Pharmaceuticals co. Ltd., priority 2022, published 2026).
